Test results: PubChem BioAssay AID2202554 (NIEHS Division of Translational Toxicology (DTT))
Inconclusive results are not listed. The source made the active and inactive calls. How the calls were made is not given here.

These compounds were tested on S. typhimurium/E. coli reverse mutation, colony counts (assay: Bacterial reverse mutation test (aka Ames test) summary data;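 further: His-minus Salmonella and trp-minus E. coli WP2 uvrA pKM101 with or without liver S9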).
Text: The Ames test uses bacteria cultures to determine whether a substance causes mutations. Because there is a significant overlap between substances that are mutagens and those that are carcinogens, a quick and inexpensive mutagenicity test is useful as an initial screening for possible carcinogens.
The Ames test relies on specific strains of S. typhimurium, namely: TA97, TA98, TA100, TA102, TA104, TA1535, TA1537, and TA1538. In addition to the S. typhimurium strains, the test may also use the E. coli strain WP2 uvrA pKM101.
Each of the bacterial strains has a mutation that prevents it from making an amino acid (a protein building block) required for normal cell growth. The S. typhimurium strains are unable to manufacture histidine; the E. coli strain cannot manufacture tryptophan. The tester strains will not be able to grow without amino acid supplementation, unless the mutated gene is changed back to the correct DNA sequence (reversion mutation). Being exposed to a mutagenic chemical increases the chance that the mutant gene will be restored to the correct sequence, which allows the bacteria to grow and form colonies. Each substance under study is tested in a variety of bacterial strains with different types of altered DNA sequences in order to provide a comprehensive assessment of the mutagenic potential of the substance.
Some non-mutagenic substances are converted to mutagenic substances when metabolized by the liver; in contrast, some substances that are mutagenic in their natural state are converted to non-mutagens by the liver. All substances are tested in their natural state, as well as in the presence of liver enzymes that can produce this metabolic conversion of the test substance. Extracts of rat, hamster, or mouse liver enzymes (S9 mix) are used for this purpose.
D. Preparing the Cultures
Multiple sets of cultures are prepared using a range of doses and different amounts of liver enzymes for each bacterial strain. Each culture is prepared in a test tube containing a suspension of one bacterial strain and either an S9 mix or plain buffer solution. Then the test substance is added. Negative control cultures are established using the same ingredients, but without the test substance. Positive control cultures are established using known mutagens active in particular bacterial strains and metabolic conditions (for example, with or without S9). Once prepared, each culture is incubated for 20 minutes at 37° C. Agar is then added to the cultures, and the contents of each tube are poured onto the surface of a Petri dish that was prepared with standard bacterial culture medium. The plates are then incubated, usually for two days.
Depending on the substance to be tested, the exposure and incubation processes may be modified. These variations include:
- Elimination of the 20-minute incubation period in a test tube prior to plating (this method is referred to as the standard plate incorporation method)
- Enzymatic reduction of azo and diazo substances (this process occurs in the intestine or liver of animals) using a chemical called flavin mononucleotide (FMN) or intestinal bacterial preparations from rats
- Testing in sealed chambers such as desiccators for volatile and gaseous chemicals.
To validate the test, a trained investigator compares the number of colonies on the chemical-treated plates to the number of colonies on the negative control plates. If the substance under test is mutagenic, the chemical-treated plates will have a much greater number of colonies than the negative control plates.
- A positive response is a reproducible, dose-related increase in mutant colonies in any single strain, with or without the addition of S9 metabolic enzymes. While there is no minimum percentage of increase required for a result to be considered positive, a twofold increase in mutant colonies in a treated plate is usually considered to be a positive (mutagenic) response.
[…]

Compound | outcome
Nc1ccc([N+](=O)[O-])cc1O | active; positive
c1ccc2c(c1)CCNC2 | inactive; negative
O=C(O)C(Cl)(Cl)Br | active; positive
CC[C@H](CC[C@@H](C)[C@H]1CC[C@H]2[C@@H]3CC=C4C[C@@H](O)CC[C@]4(C)[C@H]3CC[C@]12C)C(C)C | inactive; negative
O=c1[nH]c(=O)[nH]c(=O)[nH]1 | inactive; negative
CCCCO | inactive; negative
CC1CCCO1 (centres undefined) | inactive; negative
Oc1c(Cl)ccc(Cl)c1Cl | inactive; negative
NCCCCCCN | inactive; negative
CS(=O)(=O)c1ccc(O)c(N)c1 | inactive; negative
O=C1c2ccccc2-c2ccc3c4c(ccc1c24)-c1ccccc1C3=O | inactive; negative
COc1cc([N+](=O)[O-])ccc1N | active; positive
CCNC(=S)NCC | inactive; negative
CCOc1ccc(NC(C)=O)cc1 | inactive; negative
C=C(C#N)C(=O)OCC | inactive; negative
CC1=CC[C@H]2C(C)=CC[C@@H](C(C)C)[C@@H]2C1 | inactive; negative
C[N+](C)=c1ccc2nc3ccc(N)cc3sc-2c1 | active; positive
CC(=O)NNc1ccccc1 | active; positive
Clc1nc2ccccc2nc1Cl | inactive; negative
C=CCc1cc(OC)c2c(c1)OCO2 | inactive; negative
O=CNc1ccccc1 | inactive; negative
Nc1ccc2ccccc2c1N=Nc1ccc([N+](=O)[O-])cc1 | active; positive
c1ccc(SCCSc2ccccc2)cc1 | inactive; negative
Cc1ccc2nc(-c3ccc(N)cc3)sc2c1 | active; positive
CCCCCC | inactive; negative
Nc1ccc2cc3ccccc3cc2c1 | active; positive

Compound | outcome
CC(O)CN(CC(C)O)CC(C)O (centres undefined) | inactive; negative
O=[N+]([O-])c1cccc2c([N+](=O)[O-])cccc12 | active; positive
C=C(C)C(=O)OCC(C)C | inactive; negative
O=S(=O)([O-])[O-].[O]=[V+2] | inactive; negative
CC(=O)c1ccccn1 | inactive; negative
CCOC(=O)CC(SP(=S)(OC)OC)C(=O)OCC (centres undefined) | inactive; negative
C[N+](C)(C)Cc1ccccc1 | inactive; negative
CCN(N=O)C(N)=O | active; positive
NCCNCCN | inactive; negative
C#CCO | active; positive
N=C1N=C(N)c2ccccc21 | active; positive
Clc1c(Cl)c(Cl)c2c(Cl)c(Cl)c(Cl)c(Cl)c2c1Cl | inactive; negative
Cc1cc(C)c(C)c(C)c1 | inactive; negative
CC1CO1 (centres undefined) | active; positive
O=C(O)c1ccc([N+](=O)[O-])cc1 | active; positive
CCCCCCCCCCCCCCCCCCN | inactive; negative
NC(N)=NC(N)=NCCc1ccccc1 | inactive; negative
CCN1CCOCC1 | active; weakly positive
C[Si](C)(C)N[Si](C)(C)C | inactive; negative
COc1cc(Cc2cnc(N)nc2N)cc(OC)c1OC | inactive; negative
CC(C)Oc1ccc(Nc2ccccc2)cc1 | inactive; negative
COc1ccc(C(=O)/C(Br)=C\C(=O)O)cc1 | active; positive
C=C(F)F | active; positive
OCCCCO | inactive; negative
COc1cccc2sc(N)nc12 | active; positive
CCC=O | inactive; negative

Compound | outcome
COc1cc(-c2ccc(N=Nc3c(S(=O)(=O)O)cc4cc(S(=O)(=O)O)cc(O)c4c3O)c(OC)c2)ccc1N=Nc1c(S(=O)(=O)O)cc2cc(S(=O)(=O)O)cc(O)c2c1O | inactive; negative
Oc1ccc([C@H]2COc3cc(O)ccc3C2)cc1 | inactive; negative
C(=NC1CCCCC1)=NC1CCCCC1 | inactive; negative
OCC(CO)(CCBr)CCBr | active; positive
CCCCCc1cc(O)cc(O)c1 | inactive; negative
Cc1cc(C)cc(N)c1 | active; weakly positive
O=C(OCC1CO1)C1CCCCC1C(=O)OCC1CO1 (centres undefined) | active; positive
Nc1ccc(N)c2c1C(=O)c1c(N)ccc(N)c1C2=O | active; positive
CN(C)C(=S)SSC(=S)N(C)C | active; positive
CC1=NN(c2ccccc2)C(=O)C1 | inactive; negative
CCCCCCCCC | inactive; negative
CC(=O)O[C@]1(C(C)=O)CC[C@H]2[C@@H]3C[C@H](C)C4=CC(=O)CC[C@]4(C)[C@H]3CC[C@@]21C | inactive; negative
CC1=C(/C=C/C(C)=C/C=C/C(C)=C/C=O)C(C)(C)CCC1 | active; positive
C=CC1(C)OC(=O)N(c2cc(Cl)cc(Cl)c2)C1=O (centres undefined) | inactive; negative
S=P(N1CC1)(N1CC1)N1CC1 | active; positive
O=C(O)c1ccc(C(=O)O)cc1 | inactive; negative
ClC1=C(Cl)C2(Cl)C3C(Cl)C=CC3C1(Cl)C2(Cl)Cl (centres undefined) | inactive; negative
O=[N+]([O-])c1c(O)c(Cl)cc(Cl)c1Cl | inactive; negative
Oc1ccccc1O | inactive; negative
CN(C)CCOC(C)(c1ccccc1)c1ccccn1 (centres undefined) | inactive; negative
CN(C)C=O | inactive; negative
CCCC(CCC)C(=O)O | inactive; negative
OCC(Br)=C(Br)CO | active; positive
CCCCC(=O)OCC | inactive; negative
Cc1cccc2cccnc12 | active; positive
[O-][Br+2]([O-])O | active; positive

Compound | outcome
O=C(O)C1=NN(c2ccc(S(=O)(=O)O)cc2)C(=O)C1N=Nc1ccc(S(=O)(=O)[O-])cc1.O=C(O)C1=NN(c2ccc(S(=O)(=O)O)cc2)C(=O)C1N=Nc1ccc(S(=O)(=O)[O-])cc1.O=C(O)C1=NN(c2ccc(S(=O)(=O)O)cc2)C(=O)C1N=Nc1ccc(S(=O)(=O)[O-])cc1.[Al+3] (centres undefined) | inactive; negative
CN(C)c1ccc(N=Nc2ccccc2)cc1 | active; positive
ClC(Cl)=C(Cl)Cl | inactive; negative
CC(=O)Nc1ccccc1 | inactive; negative
CCC1(c2ccccc2)C(=O)NC(=O)NC1=O | active; weakly positive
CC(C)Nc1ccc(Nc2ccccc2)cc1 | inactive; negative
Nc1ccc([N+](=O)[O-])cc1N | active; positive
Cc1ccccc1C#N | inactive; negative
CCCCCCCC/C=C\CCCCCCCC(=O)O | inactive; negative
CC(O)CCl (centres undefined) | active; positive
CCCCCCOC(=O)c1ccccc1 | inactive; negative
N#Cc1c(Cl)c(Cl)c(Cl)c(C#N)c1Cl | inactive; negative
CC(=O)/C=C/c1ccccc1 | active; positive
CCCl | active; positive
CC(=O)OCC(COC(C)=O)OC(C)=O | inactive; negative
CC1CNCC(C)O1 (centres undefined) | active; positive
O=S(=O)(O)c1ccc(N=Nc2cc(S(=O)(=O)O)c3ccccc3c2O)c2ccccc12 | inactive; negative
Nc1ccc(-c2ccc(N)cc2)cc1 | active; positive
C=C(C)c1ccccc1 | inactive; negative
CC(O)CO (centres undefined) | inactive; negative
COC(=O)c1ccccc1O | active; weakly positive
CN(C)c1ccc(C2(c3ccc(N(C)C)cc3)OC(=O)c3cc(N(C)C)ccc32)cc1 | inactive; negative
C=CC(=O)OCCCCCCOC(=O)C=C | inactive; negative
Cc1ccccc1C(N)=O | inactive; negative
O=[N+]([O-])c1cc(Cl)c(Cl)c(Cl)c1Cl | inactive; negative
CS(=O)(=O)c1ccc(C(=O)C2C(=O)CCCC2=O)c([N+](=O)[O-])c1 | active; positive
